Here are results for 16 compounds from US12466827B2, “1,3,4-oxadiazole derivative compounds as histone deacetylase 6 inhibitor, and the pharmaceutical composition comprising the same” (CHONG KUN DANG PHARMACEUTICAL CORP., priority 2020, dated 2025).

One experiment addresses T1, human recombinant HDAC6 (Homo sapiens, UniProt Q9UBN7).
T1 construct: purchased Calbiochem Inc. 382180
T1 sequence (Q9UBN7 1-1215): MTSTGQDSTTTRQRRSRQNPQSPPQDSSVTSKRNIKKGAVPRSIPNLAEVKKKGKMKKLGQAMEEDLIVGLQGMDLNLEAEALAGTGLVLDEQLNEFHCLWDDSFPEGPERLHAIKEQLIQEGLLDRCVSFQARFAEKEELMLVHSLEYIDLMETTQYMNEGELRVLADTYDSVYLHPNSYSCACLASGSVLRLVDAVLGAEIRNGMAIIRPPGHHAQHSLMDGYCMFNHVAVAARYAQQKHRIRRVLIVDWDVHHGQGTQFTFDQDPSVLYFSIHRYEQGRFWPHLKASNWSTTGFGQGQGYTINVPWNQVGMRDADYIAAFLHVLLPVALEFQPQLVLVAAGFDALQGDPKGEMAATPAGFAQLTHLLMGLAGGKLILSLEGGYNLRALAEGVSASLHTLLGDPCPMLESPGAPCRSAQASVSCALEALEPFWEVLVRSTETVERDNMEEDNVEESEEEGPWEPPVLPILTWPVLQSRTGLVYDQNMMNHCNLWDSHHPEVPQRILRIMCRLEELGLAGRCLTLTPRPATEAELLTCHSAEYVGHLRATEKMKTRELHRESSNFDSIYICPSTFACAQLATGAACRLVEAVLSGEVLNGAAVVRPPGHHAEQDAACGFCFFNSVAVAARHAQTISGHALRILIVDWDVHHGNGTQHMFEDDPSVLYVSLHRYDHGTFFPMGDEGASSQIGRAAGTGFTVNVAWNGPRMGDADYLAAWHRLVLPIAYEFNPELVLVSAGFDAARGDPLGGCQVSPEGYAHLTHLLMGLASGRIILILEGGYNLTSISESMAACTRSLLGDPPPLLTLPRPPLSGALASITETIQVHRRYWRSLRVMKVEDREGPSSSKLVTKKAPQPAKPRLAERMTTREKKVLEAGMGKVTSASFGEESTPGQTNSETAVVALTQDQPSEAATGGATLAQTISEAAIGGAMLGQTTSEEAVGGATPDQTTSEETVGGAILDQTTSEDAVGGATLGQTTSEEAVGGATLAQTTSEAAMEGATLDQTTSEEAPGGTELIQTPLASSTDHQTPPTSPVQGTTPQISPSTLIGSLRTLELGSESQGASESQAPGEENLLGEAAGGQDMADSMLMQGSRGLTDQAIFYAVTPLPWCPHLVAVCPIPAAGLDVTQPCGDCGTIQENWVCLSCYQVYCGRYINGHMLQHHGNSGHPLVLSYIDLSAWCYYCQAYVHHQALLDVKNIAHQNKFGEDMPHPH
Briefly: In vitro HDAC enzyme activity inhibition assay (HDAC6). Conditions: for HDAC6 selectivity (fold): HDAC6 over HDAC1; for IC50: same protocol as the HDAC1 test, human recombinant HDAC6 (Calbiochem). The format is biochemical. As to the method: (§1) In order to confirm the selectivity of the compounds represented by Chemical Formula I of the present invention to HDAC6 through HDAC1 and HDAC6 enzyme activity inhibition experiments, a comparison experiment was performed using the material that has already been developed as a control group.
(§2) HDAC enzyme activity was measured using the HDAC Fluorimetric Drug Discovery Kit (Enzo Life Sciences, Inc., BML-AK511, 516). For the HDAC1 enzyme activity test, human recombinant HDAC1 (BML-SE456) was used as an enzyme source and Fluor de Lys-SIRT1 (BNL-KI177) was used as a substrate. After dispensing 5-fold diluted compounds into a 96-well plate, 0.3 μg of enzyme and 10 μM substrate were added to each well of the plate and allowed to react at 30° C. for 60 minutes. Next, Fluor de Lys Developer II (BML-KI176) was added and reacted for 30 minutes to complete the reaction, and then the fluorescence values (Ex 360, Em 460) were measured using a multi-plate reader (Flexstation 3, Molecular Device). The HDAC6 enzymes were tested using human recombinant HDAC6 (382180) from Calbiochem Inc., according to the same protocol as the HDAC1 enzyme activity test method. With respect to the final result values, respective IC50 values were calculated using GraphPad Prism 4.0 program, and results thereof were summarized in Table 4 below.

The target in another experiment is T2, human recombinant HDAC1 (Homo sapiens, UniProt Q13547).
T2 construct: purchased Enzo Life Sciences, Inc. BML-SE456
T2 sequence (Q13547 whole entry): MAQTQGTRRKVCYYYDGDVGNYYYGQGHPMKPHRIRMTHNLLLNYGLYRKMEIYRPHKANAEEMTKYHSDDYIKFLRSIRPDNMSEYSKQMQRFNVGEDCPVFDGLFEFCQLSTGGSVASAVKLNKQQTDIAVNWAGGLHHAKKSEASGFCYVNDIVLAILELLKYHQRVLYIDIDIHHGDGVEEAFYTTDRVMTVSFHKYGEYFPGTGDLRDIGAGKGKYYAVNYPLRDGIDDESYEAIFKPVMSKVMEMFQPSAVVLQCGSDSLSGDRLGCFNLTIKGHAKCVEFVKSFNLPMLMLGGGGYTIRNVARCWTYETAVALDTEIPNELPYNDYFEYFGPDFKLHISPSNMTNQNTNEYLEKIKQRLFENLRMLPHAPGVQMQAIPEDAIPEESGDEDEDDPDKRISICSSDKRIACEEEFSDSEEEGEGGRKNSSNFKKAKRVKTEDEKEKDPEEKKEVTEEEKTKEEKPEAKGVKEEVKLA
Briefly: In vitro HDAC enzyme activity inhibition assay (HDAC1). Type of experiment: biochemical. The note with it: Fluor de Lys-SIRT1 substrate 10 μM, 30° C., 60 minutes, fluorescence. Here is the method:
as §1, §2

For the compound `O=C(CO)N1CCN(S(=O)(=O)N(Cc2cn3ccc(-c4nnc(C(F)F)o4)cc3n2)c2ccccc2)CC1` [Compound 4267, N-((7-(5-(difluoromethyl)-1,3,4-oxadiazol-2-yl)imidazo[1,2-a]pyridin-2-yl)methyl)-4-(2-hydroxyacetyl)-N-phenylpiperazine-1-sulfonamide], on human recombinant HDAC6, the “HDAC6 selectivity (fold)” value was 524 fold and the IC50 – broadly, the concentration that inhibits the measured activity by half – came to 95.5 nM. Moreover, the half-maximal inhibitory concentration (IC50) on human recombinant HDAC1 was above 50000 nM.
The like results for `O=S(=O)(C1CCN(C2CCCCC2)CC1)N(Cc1cn2ccc(-c3nnc(C(F)F)o3)cc2n1)c1cccc(F)c1` [Compound 4242, 1-cyclohexyl-N-((7-(5-(difluoromethyl)-1,3,4-oxadiazol-2-yl)imidazo[1,2-a]pyridin-2-yl)methyl)-N-(3-fluorophenyl)piperidine-4-sulfonamide] were, in that order, 800 fold, 62.5 nM and above 50000 nM.
The like results for `CC(C)(C)OC(=O)N1CCC(S(=O)(=O)N(Cc2cn3ccc(-c4nnc(C(F)(F)F)o4)cc3n2)c2cccc(F)c2)CC1` [Compound 6893, tert-butyl 4-(N-(3-fluorophenyl)-N-((7-(5-(trifluoromethyl)-1,3,4-oxadiazol-2-yl)imidazo[1,2-a]pyridin-2-yl)methyl)sulfamoyl)piperidine-1-carboxylate] were, in that order, 16 fold, 3120 nM and above 50000 nM.
Take `CC(C)N1CCC(S(=O)(=O)N(Cc2cn3ccc(-c4nnc(C(F)F)o4)cc3n2)c2cccc(F)c2)CC1` [Compound 4238, N-((7-(5-(difluoromethyl)-1,3,4-oxadiazol-2-yl)imidazo[1,2-a]pyridin-2-yl)methyl)-N-(3-fluorophenyl)-1-isopropylpiperidine-4-sulfonamide]: on human recombinant HDAC6, the “HDAC6 selectivity (fold)” value was found to be 653 fold and the half-inhibitory concentration (IC50) amounted to 76.6 nM. Also, the 50% inhibitory concentration (IC50) on human recombinant HDAC1 was above 50000 nM.
As for `CCN1CCN(S(=O)(=O)N(Cc2cn3ccc(-c4nnc(C(F)F)o4)cc3n2)c2cccc(F)c2)CC1` [Compound 4298, N-((7-(5-(difluoromethyl)-1,3,4-oxadiazol-2-yl)imidazo[1,2-a]pyridin-2-yl)methyl)-4-ethyl-N-(3-fluorophenyl)-piperazine-1-sulfonamide], on human recombinant HDAC6, the “HDAC6 selectivity (fold)” value worked out at 631 fold and the concentration for half-maximal inhibition (IC50) amounted to 79.2 nM. In addition, the IC50 on human recombinant HDAC1 is above 50000 nM.
With `CS(=O)(=O)N1CCC(S(=O)(=O)N(Cc2cn3ccc(-c4nnc(C(F)F)o4)cc3n2)c2ccccc2)CC1` [Compound 4225, N-((7-(5-(difluoromethyl)-1,3,4-oxadiazol-2-yl)imidazo[1,2-a]pyridin-2-yl)methyl)-1-(methylsulfonyl)-N-phenylpiperidine-4-sulfonamide], on human recombinant HDAC6, the “HDAC6 selectivity (fold)” value stood at 530 fold and the IC50 came to 94.4 nM. The 50% inhibitory concentration (IC50) on human recombinant HDAC1 is above 50000 nM.
The corresponding values for `O=S(=O)(C1CCN(C2CCCCC2)CC1)N(Cc1cn2ccc(-c3nnc(C(F)F)o3)cc2n1)c1ccccc1` [Compound 4218, 1-cyclohexyl-N-((7-(5-(difluoromethyl)-1,3,4-oxadiazol-2-yl)imidazo[1,2-a]pyridin-2-yl)methyl)-N-phenylpiperidine-4-sulfonamide] are 433 fold, 116 nM and above 50000 nM.
Regarding `CC(CO)N1CCC(S(=O)(=O)N(Cc2cn3ccc(-c4nnc(C(F)F)o4)cc3n2)c2ccccc2)CC1` (stereo not drawn) [Compound 4216, N-((7-(5-(difluoromethyl)-1,3,4-oxadiazol-2-yl)imidazo[1,2-a]pyridin-2-yl)methyl)-1-(1-hydroxypropan-2-yl)-N-phenylpiperidine-4-sulfonamide], at human recombinant HDAC6, the “HDAC6 selectivity (fold)” value is reported as 420 fold and the 50% inhibitory concentration (IC50) is 119 nM. For the same compound, the concentration for half-maximal inhibition (IC50) on human recombinant HDAC1 is above 50000 nM.
Regarding `O=S(=O)(N1CCN(c2ccccn2)CC1)N(Cc1cn2ccc(-c3nnc(C(F)F)o3)cc2n1)c1ccccc1` [Compound 4274, N-((7-(5-(difluoromethyl)-1,3,4-oxadiazol-2-yl)imidazo[1,2-a]pyridin-2-yl)methyl)-N-phenyl-4-(pyridin-2-yl)piperazine-1-sulfonamide], on human recombinant HDAC6, the “HDAC6 selectivity (fold)” value was found to be 333 fold and the IC50 worked out at 150 nM. Also, the IC50 on human recombinant HDAC1 is above 50000 nM.
In the case of `CCC(=O)N1CCC(S(=O)(=O)N(Cc2cn3ccc(-c4nnc(C(F)F)o4)cc3n2)c2cccc(F)c2)CC1` [Compound 4246, N-((7-(5-(difluoromethyl)-1,3,4-oxadiazol-2-yl)imidazo[1,2-a]pyridin-2-yl)methyl)-N-(3-fluorophenyl)-1-propionylpiperidine-4-sulfonamide], at human recombinant HDAC6, the “HDAC6 selectivity (fold)” value was found to be 660 fold and the half-maximal inhibitory concentration (IC50) is 75.8 nM. Further, the half-maximal inhibitory concentration (IC50) at human recombinant HDAC1 is above 50000 nM.
For `O=S(=O)(N1CCN(C2COC2)CC1)N(Cc1cn2ccc(-c3nnc(C(F)F)o3)cc2n1)c1ccccc1` [Compound 4261, N-((7-(5-(difluoromethyl)-1,3,4-oxadiazol-2-yl)imidazo[1,2-a]pyridin-2-yl)methyl)-4-(oxetan-3-yl)-N-phenylpiperazine-1-sulfonamide], the “HDAC6 selectivity (fold)” value at human recombinant HDAC6 turned out to be 588 fold. Besides, the IC50 was 85 nM at human recombinant HDAC6 and above 50000 nM at human recombinant HDAC1.
As to `O=S(=O)(N1CCN(C2CC3(CCC3)C2)CC1)N(Cc1cn2ccc(-c3nnc(C(F)F)o3)cc2n1)c1cccc(F)c1` [Compound 4622, N-((7-(5-(difluoromethyl)-1,3,4-oxadiazol-2-yl)imidazo[1,2-a]pyridin-2-yl)methyl)-N-(3-fluorophenyl)-4-(spiro[3.3]heptan-2-yl)piperazine-1-sulfonamide], at human recombinant HDAC6, the “HDAC6 selectivity (fold)” value came to 274 fold and the IC50 was 182 nM. The IC50 on human recombinant HDAC1 was above 50000 nM.
In the case of `CC(=O)N1CCN(S(=O)(=O)N(Cc2cn3ccc(-c4nnc(C(F)F)o4)cc3n2)c2ccccc2)CC1` [Compound 4265, 4-acetyl-N-((7-(5-(difluoromethyl)-1,3,4-oxadiazol-2-yl)imidazo[1,2-a]pyridin-2-yl)methyl)-N-phenylpiperazine-1-sulfonamide], at human recombinant HDAC6, the “HDAC6 selectivity (fold)” value turned out to be 585 fold and the half-maximal inhibitory concentration (IC50) is 85.5 nM. For the same compound, the IC50 at human recombinant HDAC1 is above 50000 nM.
`O=S(=O)(N1CCN(C2COC2)CC1)N(Cc1cn2ccc(-c3nnc(C(F)F)o3)cc2n1)c1cccc(F)c1` [Compound 4302]: at human recombinant HDAC6, the “HDAC6 selectivity (fold)” value stood at 737 fold and the concentration for half-maximal inhibition (IC50) is 67.8 nM. Besides, the half-maximal inhibitory concentration (IC50) on human recombinant HDAC1 is above 50000 nM.
The corresponding values for `CN1CCC(S(=O)(=O)N(Cc2cn3ccc(-c4nnc(C(F)F)o4)cc3n2)c2ccccc2)CC1` [Compound 3778, N-((7-(5-(difluoromethyl)-1,3,4-oxadiazol-2-yl)imidazo[1,2-a]pyridin-2-yl)methyl)-1-methyl-N-phenylpiperidine-4-sulfonamide] are 549 fold, 91 nM and above 50000 nM.
Consider `O=S(=O)(N1CCN(C2CCC2)CC1)N(Cc1cn2ccc(-c3nnc(C(F)F)o3)cc2n1)c1ccccc1` [Compound 4260, 4-cyclobutyl-N-((7-(5-(difluoromethyl)-1,3,4-oxadiazol-2-yl)imidazo[1,2-a]pyridin-2-yl)methyl)-N-phenylpiperazine-1-sulfonamide], for which, on human recombinant HDAC6, the “HDAC6 selectivity (fold)” value stood at 573 fold and the 50% inhibitory concentration (IC50) is 87.3 nM. For the same compound, the IC50 at human recombinant HDAC1 was above 50000 nM.
